Test results as given in ChEMBL document CHEMBL1125820, “Structure-activity relationship of mutagenic aromatic and heteroaromatic nitro compounds. Correlation with molecular orbital energies and hydrophobicity” (J Med Chem, 1991).

Assays:
[1] = Partition coefficient (logP); settings: octanol/water
[2] = system: Salmonella typhimurium; assay: Mutagenic activity in Salmonella Typhimurium TA98 using Ames test; Activity is log of revertants / nmol; a= inactive; format: functional, Salmonella enterica subsp. enterica serovar Typhimurium
[3] = system: Salmonella typhimurium; assay: Mutagenic activity in an Ames test on Salmonella Typhimurium TA98; Activity is log of revertants/nmol; format: functional, Salmonella enterica subsp. enterica serovar Typhimurium; design: scale not given here

| SMILES | logP [1] | Activity [2] | Activity [3] |
| --- | --- | --- | --- |
| O=[N+]([O-])c1c2ccccc2cc2ccccc12 | 4.78 | -0.95 |  |
| O=[N+]([O-])c1cccc2c1-c1cccc3cccc-2c13 | 4.69 |  | 1.87 |
| O=[N+]([O-])c1cc2c3c(c1)CCc1cc([N+](=O)[O-])cc(c1-3)CC2 | 5.02 |  | 3.5 |
| NC(=O)N/N=C/c1ccc([N+](=O)[O-])o1 [NITROFURAZONE] | 0.23 |  | 1.02 |
| O=[N+]([O-])c1cc2ccccc2c2ccc3ccccc3c12 | 5.41 |  | -0.22 |
